From patent US20240139210A1, “TREATMENT OF NF-KB-MEDIATED DISEASE” (ReveraGen BioPharma, Inc., priority 2020, published 2024)
Like-named read-outs stand apart in the source and are kept apart here.

Tests used:
boys with DMD [1] = conditions: cited from earlier work; for LS Mean change in height percentiles for age: 12-month treatment period, DMD
participants with DMD = conditions: CINRG DNHS, deflazacort n = 94, prednisone n = 80; cited from earlier work
[2] = tested on: ambulant boys aged 4 to <7 years with DMD; experiment: VBP15-004 adverse events; set-up: species or system human; conditions: male, human, in vivo, 24 weeks
Source text: (§1) The second period of 24 weeks, where all participants receive vamorolone treatment on either of the two dose levels, will continue to capture additional longer-term safety and tolerability data.
The study completion rate at 24 weeks was 94% (or 114 of 121 participants).
Pre-specified AESIs typically for corticosteroids were higher in prednisone-treated subjects than vamorolone-treated subjects after 24 weeks of treatment (Table 10).

[3] = tested on: ambulant boys aged 4 to <7 years with DMD; experiment: VBP15-004 bone turnover biomarkers; format: in vivo, human; conditions: Prednisone 0.75 mg (N = 24)
[4] = tested on: ambulant boys aged 4 to <7 years with DMD; experiment: VBP15-004 growth (height Z scores); format: in vivo, human; conditions: prednisone 0.75 mg/kg/day
Source text: as §1

boys with DMD [5] = experiment: CINRG 12-month prednisone clinical trial, external comparator; format: in vivo, human; conditions: vamorolone 18-month treatment versus prednisone trial 12-month treatment
Protocol: As with the CINRG DNHS comparators, group-matching criteria were prespecified in the iSAP, and 2 independent statisticians carried out the participant matching. […] There was no corresponding 12-month assessment in vamorolone-treated participants. (Assessments of vamorolone-treated trial participants were 0, 3, 6, and 18 months).
Participants in the corticosteroid-treated CINRG DNHS group were treated for at least 18 months, but the total duration, dose, and regimens varied.

[6] = 0.9 mg/kg/day deflazacort (n = 68), 0.75 mg/kg/day prednisone (n = 63)

SMILES	Incidence of physician-reported Cushingoid (boys with DMD [1]; [6])	Incidence of physician-reported behavior change (boys with DMD [1]; [6])	Incidence of physician-reported hypertrichosis/hirsutism (boys with DMD [1]; [6])	Incidence of physician-reported weight gain (boys with DMD [1]; [6])	LS Mean change in height percentiles for age (boys with DMD [1])	LS Mean change in height percentiles for age (boys with DMD [1]; listed as deflazacort)	Incidence of physician-reported Cushingoid (participants with DMD)	Incidence of physician-reported behavior change (participants with DMD)	Incidence of physician-reported weight gain (participants with DMD)	clinically relevant psychiatric events, subjects [2]	incidence of behavior problems [2]	moderate/severe behavior problems, subjects [2]	Osteocalcin, mean (SEM) change at Week 24 [3]	Procollagen 1 N-Terminal Propeptide (P1NP), mean (SEM) change at Week 24 [3]	Type I Collagen C-Telopeptides (CTX), mean (SEM) change at Week 24 [3]	change in height Z scores from baseline to Week 24 [4]	Mean BMI z-score, LS mean difference (SE), ANCOVA (boys with DMD [5])	Mean height percentile for age, LS mean difference (SE), ANCOVA (boys with DMD [5])
CC(=O)OCC(=O)[C@@]12N=C(C)O[C@@H]1C[C@H]1[C@@H]3CCC4=CC(=O)C=C[C@]4(C)[C@H]3[C@@H](O)C[C@@]12C [Deflazacort, deflazacort]	60.3%	9%	35%	27.9%	−11.4 percentile	−11.43 percentile	72%	33%	63%									
C[C@]12C=CC(=O)C=C1CC[C@@H]1[C@@H]2C(=O)C[C@@]2(C)[C@H]1CC[C@]2(O)C(=O)CO [Prednisone, prednisone]										19.4%	32.3%	22.6%	−15.2 (2.7) ng/ml	−134 (22) ng/mL	−300 (43) pg/mL	growth deceleration	0.066 (0.193)	10.37 (3.86) percentile
